The source made the active and inactive calls. The calls are words filed in the database; no cut-off is given here.

What all share (assay type): functional
Assay [1] has as its system Klebsiella pneumoniae. Nature of the assay: Antimicrobial activity against Klebsiella pneumoniae assessed as zone of inhibition at 100 ug/well after 24 hrs by agar well diffusion method. To be noted: for zone of inhibition at 100 µg/disc: read-out: DIZ. A general note: Agar diffusion results depend on both activity and mobility in agar.
Assay [2] has as its system Aspergillus niger. Nature of the assay: Antifungal activity against Aspergillus niger assessed as zone of inhibition at 75 ug/well after 48 hrs by agar well diffusion method. The settings on record: for zone of inhibition at 75 µg/disc: read-out: DIZ.
Assay [3] deals with Staphylococcus aureus. Nature of the assay: Antimicrobial activity against Staphylococcus aureus assessed as zone of inhibition at 50 ug/well after 24 hrs by agar well diffusion method.
Assay [4] concerns Pseudomonas aeruginosa. The experiment in a line: Antimicrobial activity against Pseudomonas aeruginosa assessed as zone of inhibition at 100 ug/well after 24 hrs by agar well diffusion method.
In assay [5] the test system is Aspergillus niger. Nature of the assay: Antifungal activity against Aspergillus niger assessed as zone of inhibition at 100 ug/well after 48 hrs by agar well diffusion method. The settings on record: for zone of inhibition at 100 µg/disc: read-out: DIZ.
Assay [6] concerns Penicillium chrysogenum. The experiment in a line: Antifungal activity against Penicillium chrysogenum assessed as zone of inhibition at 50 ug/well after 48 hrs by agar well diffusion method.
The test system of assay [7] is Klebsiella pneumoniae. The experiment in a line: Antimicrobial activity against Klebsiella pneumoniae assessed as zone of inhibition at 75 ug/well after 24 hrs by agar well diffusion method. The settings on record: for zone of inhibition at 75 µg/disc: read-out: DIZ.
In assay [8] the test system is Pseudomonas aeruginosa. Nature of the assay: Antimicrobial activity against Pseudomonas aeruginosa assessed as zone of inhibition at 50 ug/well after 24 hrs by agar well diffusion method.
The subject of assay [9] is Bacillus subtilis. Nature of the assay: Antimicrobial activity against Bacillus subtilis assessed as zone of inhibition at 100 ug/well after 24 hrs by agar well diffusion method. The settings on record: for zone of inhibition at 100 µg/disc: read-out: DIZ.
In assay [10] the test system is Klebsiella pneumoniae. The experiment in a line: Antimicrobial activity against Klebsiella pneumoniae assessed as zone of inhibition at 50 ug/well after 24 hrs by agar well diffusion method. The settings on record: for zone of inhibition at 50 µg/disc: read-out: DIZ.
Assay [11] concerns Penicillium chrysogenum. Nature of the assay: Antifungal activity against Penicillium chrysogenum assessed as zone of inhibition at 100 ug/well after 48 hrs by agar well diffusion method. The settings on record: for zone of inhibition at 100 µg/disc: read-out: DIZ.
The test system of assay [12] is Penicillium chrysogenum. The experiment in a line: Antifungal activity against Penicillium chrysogenum assessed as zone of inhibition at 75 ug/well after 48 hrs by agar well diffusion method. The settings on record: for zone of inhibition at 75 µg/disc: read-out: DIZ.
Assay [13] deals with Aspergillus niger. The experiment in a line: Antifungal activity against Aspergillus niger assessed as zone of inhibition at 50 ug/well after 48 hrs by agar well diffusion method.
Assay [14] relates to Staphylococcus aureus. Nature of the assay: Antimicrobial activity against Staphylococcus aureus assessed as zone of inhibition at 100 ug/well after 24 hrs by agar well diffusion method. To be noted: for zone of inhibition at 100 µg/disc: read-out: DIZ.
Assay [15] relates to Staphylococcus aureus. The experiment in a line: Antimicrobial activity against Staphylococcus aureus assessed as zone of inhibition at 75 ug/well after 24 hrs by agar well diffusion method.
Assay [16] concerns Pseudomonas aeruginosa. The experiment in a line: Antimicrobial activity against Pseudomonas aeruginosa assessed as zone of inhibition at 75 ug/well after 24 hrs by agar well diffusion method.
In assay [17] the test system is Bacillus subtilis. Nature of the assay: Antimicrobial activity against Bacillus subtilis assessed as zone of inhibition at 50 ug/well after 24 hrs by agar well diffusion method. The settings on record: for zone of inhibition at 50 µg/disc: read-out: DIZ.
Assay [18] deals with Bacillus subtilis. The experiment in a line: Antimicrobial activity against Bacillus subtilis assessed as zone of inhibition at 75 ug/well after 24 hrs by agar well diffusion method. To be noted: for zone of inhibition at 75 µg/disc: read-out: DIZ.

Regarding `O=C(NS(=O)(=O)C1C(c2ccccc2)=NN(c2ccccc2)C1c1ccc([N+](=O)[O-])cc1)c1cccs1` (centres undefined), the zone of inhibition at 100 µg/disc in the assay on Klebsiella pneumoniae [1] is 13 mm; with Aspergillus niger [5] it was 15 mm; in the assay with Bacillus subtilis [9] it was 17 mm; in the assay on Penicillium chrysogenum [11], 12 mm; in the assay on Staphylococcus aureus [14] it was 9 mm. For the same compound, the zone of inhibition at 75 µg/disc was 12 mm in the assay on Aspergillus niger [2], 11 mm with Klebsiella pneumoniae [7], 9 mm in the assay with Penicillium chrysogenum [12] and 14 mm in the assay with Bacillus subtilis [18]. Further, the “diameter of the inhibition zone (DIZ)” value in the assay with Staphylococcus aureus [3], in the assay on Pseudomonas aeruginosa [4], in the assay on Penicillium chrysogenum [6], in the assay with Pseudomonas aeruginosa [8], in the assay with Aspergillus niger [13] and in the assay on Staphylococcus aureus [15] was “inactive” in each case. Besides, in the assay with Pseudomonas aeruginosa [16], the “diameter of the inhibition zone (DIZ)” value was “inactive”. Moreover, the values for the zone of inhibition at 50 µg/disc in the assay with Klebsiella pneumoniae [10] and with Bacillus subtilis [17] were 9 mm and 12 mm, respectively.

For the compound `O=C(NS(=O)(=O)c1c(-c2ccccc2)noc1-c1ccccc1)c1cccs1`, the zone of inhibition at 100 µg/disc turned out to be 26 mm in the assay with Klebsiella pneumoniae [1]; 15 mm in the assay on Pseudomonas aeruginosa [4] (read-out: DIZ); 23 mm with Aspergillus niger [5]; 29 mm with Bacillus subtilis [9]; 19 mm in the assay on Penicillium chrysogenum [11]; 23 mm in the assay with Staphylococcus aureus [14]. The zone of inhibition at 75 µg/disc was found to be 20 mm in the assay with Aspergillus niger [2]; 24 mm in the assay with Klebsiella pneumoniae [7]; 16 mm in the assay on Penicillium chrysogenum [12]; 21 mm with Staphylococcus aureus [15] (read-out: DIZ); 13 mm in the assay with Pseudomonas aeruginosa [16] (read-out: DIZ); 26 mm with Bacillus subtilis [18]. The zone of inhibition at 50 µg/disc was 17 mm in the assay on Staphylococcus aureus [3] (read-out: DIZ); 14 mm with Penicillium chrysogenum [6] (read-out: DIZ); 11 mm in the assay with Pseudomonas aeruginosa [8] (read-out: DIZ); 21 mm in the assay with Klebsiella pneumoniae [10]; 18 mm in the assay on Aspergillus niger [13] (read-out: DIZ); 24 mm in the assay with Bacillus subtilis [17].

With `O=C(NS(=O)(=O)C1C(c2ccccc2)=NN(c2ccccc2)C1c1ccccc1)c1cccs1` (centres undefined), the “diameter of the inhibition zone (DIZ)” value in the assay on Klebsiella pneumoniae [1], in the assay on Aspergillus niger [2], in the assay with Staphylococcus aureus [3], in the assay on Pseudomonas aeruginosa [4], with Aspergillus niger [5] and in the assay with Penicillium chrysogenum [6] was “inactive” throughout. The “diameter of the inhibition zone (DIZ)” value in the assay on Klebsiella pneumoniae [7], in the assay on Pseudomonas aeruginosa [8], with Bacillus subtilis [9], in the assay on Klebsiella pneumoniae [10], with Penicillium chrysogenum [11] and in the assay with Penicillium chrysogenum [12] was “inactive” each time. Further, the “diameter of the inhibition zone (DIZ)” value in the assay on Aspergillus niger [13], with Staphylococcus aureus [14], with Staphylococcus aureus [15], in the assay with Pseudomonas aeruginosa [16], with Bacillus subtilis [17] and in the assay with Bacillus subtilis [18] was “inactive” each time.

The values are drawn from ChEMBL document CHEMBL4251595, “Green approach for the synthesis of thiophenyl pyrazoles and isoxazoles by adopting 1,3-dipolar cycloaddition methodology and their antimicrobial activity” (2018).
